Data reported in paper PMC9692619, “Insights into the 3D In Vitro Permeability and In Vivo Antioxidant Protective Effects of Kiwiberry Leaf Extract: A Step Forward to Human Nutraceutical Use” (International Journal of Molecular Sciences, 2022).
Several values for one entry are separate records, joined by “and”; a condition that tells them apart may be missing. Equal entries are not always repeated. Marks after values point to notes of the source that are not given here.

How the values were obtained:
[1] = tested on: co-culture model with Caco-2 and HT29-MTX; assay: 3D intestinal permeability assay (co-culture, HPLC-MS of basolateral samples); assay type: in vitro ADME; settings: for Permeability (%): 3D intestinal model, compound of kiwiberry leaf extract; for permeation in the 3D intestinal model: time not stated; for permeation (detection after the 3D intestinal permeation assay): aglycones, result in words
Experimental: The intestinal permeability was carried out in a co-culture model with Caco-2 and HT29-MTX [40]. The extract was added to the apical side of the model. A sample from the basolateral side was collected at different timepoints (0, 15, 30, 45, 60, 90, 120, 150, 180, and 240 min). Samples were analyzed by HPLC-MS assay (Section 3.5). The TEER of the model was evaluated before, during and at the end of the permeability assay using an EVOM Epithelial Volthometer Instrument equipped with a chopstick electrode (World Precision Instruments, Sarasota, FL, USA).
The phenolic compounds that permeated the intestinal 3D model were identified and quantified according to Silva et al.. The samples were diluted 10 times with methanol-water (50:50) and centrifuged at 13,300× […] for 15 min. The supernatant was then transferred to a vial for the LC-MS analysis. The standard calibration curves were: • Chlorogenic acid titration curve: y = 198.01x + 20.138 (R^2 = 1) • Rutin titration curve: y = 58.564x + 41.752 (R^2 = 0.9998)
Regarding the multiple reaction monitoring (MRM), the values were: • Chlorogenic acid: 353.5 > 191.2 • Rutin: 609.4 > 301.3 • Coumaroyl quinic acid: 337.3 > 191.3

[2] = Serum biochemical analysis (TC, HDL-C, LDL-C, TG) after 7 days oral treatment; assay type: in vivo, Wistar rats; settings: 50 mg/kg bw oral once daily 7 days
Experimental: (§1) The homogenate supernatants were analyzed by biochemical assays.
Serum was used to analyze the TC, HDL-C, and LDL-C using commercial kits from Sigma-Aldrich (Steinheim, Germany). TG levels were estimated in the blood serum through a commercial kit from Abcam (Cambridge, MA, USA).

MDA = assay: Lipid peroxidation: MDA levels in kidney, liver, serum; assay type: in vivo, Wistar rats; settings: 50 mg/kg bw oral once daily 7 days
Experimental: as §1
(§2) The antioxidant enzyme activities, namely SOD, CAT, and GSH-Px, were evaluated in the homogenate supernatants from organs through commercial enzymatic kits from Sigma-Aldrich (Steinheim, Germany). The lipid peroxidation was determined through the determination of MDA levels using a commercial kit (Merck, Darmstadt, Germany).

SOD = assay: In vivo antioxidant parameter: SOD activity in kidney, liver, serum; parameters: species or system Wistar rats; settings: 50 mg/kg bw oral once daily 7 days
Experimental: as §1, §2

CAT = assay: In vivo antioxidant parameter: CAT activity in kidney, liver, serum; parameters: species or system Wistar rats; settings: 50 mg/kg bw oral once daily 7 days
Experimental: as §1, §2

kidney and liver tissues = assay: Histopathological analysis of kidney and liver (hematoxylin-eosin); settings: oral gavage once daily 7 days; extract 50 and 75 mg/kg bw, vitamin C 50 mg/kg bw
Experimental: Young male Wistar rats of 5–6 weeks of age (140–207 g) were acquired from the Jackson Laboratory (Bar Harbor, ME, USA) and acclimatized in polypropylene cages to the environmental conditions (12 h dark/light cycle, controlled temperature (21 ± 2 °C), relative humidity (55 ± 10%) and fed ad libitum with standard pellet diet and water for 1 week before the experiment).
All groups were treated once daily for 7 days by oral gavage after a fasting period of 4 h. The body weight of each animal was recorded twice a week during the experimental period. Blood samples were collected from tail vein and a glucometer (Accu-Chek, Roche® Diabetes Care, Inc., Mississauga, QC, Canada) was used to measure the glucose levels.
After 7 days, the animals were sacrificed by pentobarbital overdose (50 mg/kg bw). The organs (liver and kidneys) were removed, and the blood was collected by cardiac puncture. Serum was separated by centrifugation (20,000× g, 15 min, 4 °C) and stored at −80 °C for biochemical analyses [42]. The organs were dissected from each animal and subsequently mixed with 50 mM potassium phosphate, pH 7.0, and centrifuged (20,000× g, 15 min, 4 °C), according to the kit manufacturer’s instructions. The homogenate supernatants were analyzed by biochemical assays.
The tissue samples (liver and kidney) were preserved in 10% formalin. […]

GSH-Px = assay: In vivo antioxidant parameter: GSH-Px activity in kidney, liver, serum; parameters: species or system Wistar rats; settings: 50 mg/kg bw oral once daily 7 days
Experimental: as §1, §2

Permeability (%) ([1]; 15 min)	Permeability (%) ([1]; 30 min)	Permeability (%) ([1]; 45 min)	Permeability (%) ([1]; 60 min)	Permeability (%) ([1]; 90 min)	Permeability (%) ([1]; 120 min)	Permeability (%) ([1]; 180 min)	Permeability (%) ([1]; 240 min)	permeation in the 3D intestinal model [1]	permeation (detection after the 3D intestinal permeation assay) [1]	SMILES	other results
<LOD	1.79 ± 0.09%	<LOD	<LOD	<LOD	<LOD	<LOD	2.49%			O=C(/C=C/c1ccc(O)c(O)c1)O[C@@H]1C[C@](O)(C(=O)O)C[C@@H](O)[C@H]1O [Chlorogenic acid]	Permeability (%) ([1]; 240 min, listed as Chlorogenic Acid): 2.49 ± 0.13%
1.04 ± 0.05%	18.81 ± 0.94%	7.99 ± 0.39%	13.50 ± 0.68%	19.74 ± 0.99%	14.60 ± 0.73%	24.32 ± 1.22%	34.23%	higher than 25%		O=C(/C=C/c1ccc(O)cc1)O[C@@H]1C[C@](O)(C(=O)O)C[C@@H](O)[C@H]1O [Coumaroyl quinic acid]	Permeability (%) ([1]; 240 min, listed as Coumaroyl Quinic Acid): 34.23 ± 1.71%
6.67 ± 0.33%	10.89 ± 0.54%	17.01 ± 0.85%	14.61 ± 0.73%	14.56 ± 0.73%	18.50 ± 0.93%	18.30 ± 0.92%	25.40 ± 1.27%	higher than 25%		C[C@@H]1O[C@@H](OC[C@H]2O[C@@H](Oc3c(-c4ccc(O)c(O)c4)oc4cc(O)cc(O)c4c3=O)[C@H](O)[C@@H](O)[C@@H]2O)[C@H](O)[C@H](O)[C@H]1O [Rutin]	Permeability (%) ([1]; 15 min, listed as rutin): 6.67%; Permeability (%) ([1]; 240 min, listed as rutin): 25.40%
									absence of permeation	O=c1c(O)c(-c2ccc(O)cc2)oc2cc(O)cc(O)c12 [kaempferol]	
									absence of permeation	O=c1c(O)c(-c2ccc(O)c(O)c2)oc2cc(O)cc(O)c12 [quercetin]	
										O=C1O[C@H]([C@@H](O)CO)C(O)=C1O [vitamin C]	HDL-C [2]: 155.09 ± 37.71 mg/dL; LDL-C [2]: 76.24 ± 16.52 mg/dL; TG [2]: 229.76 ± 33.54 ^a mg/dL; TC ([2]; 50 mg/kg): 79.81 mg/dL and 79.81 ± 15.11 mg/dL; MDA, Kidneys (MDA): 196,748 ± 31,125 ^a nmol/g protein; MDA, Liver (MDA): 145,827 ± 10,063 ^b nmol/g protein; MDA, Serum (MDA): 746.79 ± 123.55 ^b nmol/mL protein; SOD, Kidneys (SOD): 123.13 ± 19.27 ^b,c units/g protein; SOD, Liver (SOD): 83.71 ± 6.06 ^b units/g protein; SOD, Serum (SOD): 79.20 ± 5.76 ^b units/mL protein; CAT, Kidneys (CAT): 427,496 ± 78,015 ^b nmol/min/g protein; CAT, Liver (CAT): 3,762,450 ± 434,242 ^c nmol/min/g protein; CAT, Serum (CAT): 34,911 ± 7975 ^b nmol/min/mL protein; histopathological examination of kidneys (kidney and liver tissues): did not lead to morphological alterations; GSH-Px, Kidneys (GSH-Px): 136.66 ± 19.62 ^b units/g protein; GSH-Px, Liver (GSH-Px): 71.34 ± 10.94 ^b,c units/g protein; GSH-Px, Serum (GSH-Px): 20.16 ± 5.29 ^b units/mL protein
